# Tested on: thyroid transcription factor-1 (TTF-1) mRNA expression in A549 lung carcinoma cells
# Assay: TTF-1 knockdown determination by RT-qPCR
# Format: cell-based, human
# Design: knockdown (reduction) of TTF-1 mRNA: concentration or dose not given beside the values
# Conditions: for Relative TTF-1 mRNA Expression (Normalized to GAPDH) / knockdown (reduction) of TTF-1 mRNA: A549 cells, TTF-1 siRNA; for Relative TTF-1 mRNA Expression (Normalized to GAPDH): 4 h dosing then 48 h incubation; for knockdown (reduction) of TTF-1 mRNA: normalized to GAPDH; for knockdown efficacy group: relative to Lipofectamine
# Text: Finally, N-X-Phe derivatives achieved functional delivery of siRNA. To verify delivery of functional siRNA using N-X-Phe-DAP/siRNA particles, relative thyroid transcription factor-1 (TTF-1) mRNA expression normalized to GAPDH in A549 lung carcinoma cells was quantified against knockdown efficiencies with Lipofectamine as a control delivery agent (FIG. 6, Table 3). […] “Scrambled” is control siRNA delivered with Lipofectamine. TTF-1 is delivery of TTF-1 siRNA with Lipofectamine (n=5, *p≤0.05, **p≤0.01, ****p≤0.0001).
# Sample Preparation for Cell-Based Experiments: For delivery analysis and functional knockdown, N-X-Phe-DAP derivatives (10 μL, 1 mM) or Lipofectamine 3000 (6 μL) was mixed with TTF-1 siRNA (Santa Cruz Biotechnology sc-36756, 6 μL, 10 μM) in Ultrapure™ DNase/RNase-Free Distilled Water (Invitrogen 10977015) to give a final volume of 100 μL. These mixtures were incubated for 30 minutes at room temperature, followed by dilution into 1×DMEM (Gibco 11965092, 1.9 mL). For cytotoxicity assays, N-X-Phe-DAP derivatives (10 μL, 1 mM) were diluted into 1×DMEM (Gibco 11965092, 1.9 mL).
# TTF-1 Knockdown Determination: All knockdown experiments were performed in triplicate. A549 cells were seeded at a density of 1.05×10^5 cells/well in a 96-well plate (200 μL) and grown to 70-90% confluency. Cells were washed twice with 1×PBS (200 μL/well), N-X-Phe-DAP/siRNA samples were added (200 μL/well), and mixtures were incubated for 4 h at 37° C., 5% CO2. After 4 h, the media was removed, cells were washed with 1×PBS, wells were replenished with complete media containing 1×DMEM (Gibco 11965092), 10% fetal bovine serum (FBS, Invitrogen 26140087), and 1× antibiotic-antimycotic (Gibco 15240-062) and incubated an additional 48 h.
# Cells were lysed and RNA was extracted using an Aurum Total RNA Mini Kit (Bio-Rad 7326820). In brief, cells were lysed with Lysis solution containing 1% β-mercaptoethanol (200 μL). Lysate was then mixed with 70% EtOH (200 μL) and processed using QIAshredder homogenizer columns (Qiagen 79656). Homogenate was then transferred to Aurum RNA binding columns, washed with Low Stringency Wash Solution, and incubated with diluted DNase I solution (80 μL) for 15 minutes at RT. Samples were then serially washed with High and Low Stringency Wash Solutions and RNA was eluded from the column with Ultrapure™ DNase/RNase-Free Distilled Water (Invitrogen 10977015, 80 μL). Recovered RNA was quantified on a Nanodrop One system and samples were diluted in Ultrapure™ DNase/RNase-Free Distilled Water (Invitrogen 10977015, 2 ng/μL). Relative TTF-1 knockdown was quantified by RT-qPCR
# An iScript cDNA Synthesis Kit (Bio-Rad 1708891) was used for reverse transcription of extracted RNA samples. In brief, samples were prepared by combining 5× iScript Reaction Mix (4 μL), iScript Reverse Transcriptase (1 μL), extracted RNA (12.5 μL, 2 ng/μL), and Ultrapure™ DNase/RNase-Free Distilled Water (Invitrogen 10977015, 2.5 μL). Samples were incubated on a Bio-Rad Thermal Cycler using the following protocol: 5 min priming at 25° C., 20 min reverse transcription at 40° C., and 1 min reverse transcriptase inactivation at 95° C. Recovered cDNA was quantified on a Nanodrop One and samples were diluted in Ultrapure™ DNase/RNase-Free Distilled Water (Invitrogen 10977015, 50 ng/μL). Gene expression was quantified utilizing qPCR. A primer stock solution (750 nM, 267 μL, H2O) of TTF-1 (Santa Cruz Biotechnology, sc-36756-PR) or GAPDH (Santa Cruz Biotechnology, sc-35448-PR) primer pairs were prepared by dilution of Primer A (20 μL, 10 μM) and Primer B (20 μL, 10 μM) into Ultrapure™ DNase/RNase-Free Distilled Water (Invitrogen 10977015, 227 μL). Samples were prepared in triplicate by combining 2× iTaq Universal SYBR Green Super Mix (5 μL, Bio-Rad), TTF-1 or GAPDH primer stock (4 μL, 750 nM), and recovered cDNA (1 μL, 50 ng/μL) in sterile qPCR tubes. Quantitative Ct values were obtained by running samples on a Bio-Rad CFX96 Touch using the “PWRUP60” protocol. […]
SMILES,Relative TTF-1 mRNA Expression (Normalized to GAPDH),knockdown (reduction) of TTF-1 mRNA,knockdown efficacy group
NCCCNC(=O)[C@H](Cc1ccccc1)NC(=O)Cc1cccc2ccccc12 [1-Nap-Phe-DAP],13.8 ± 3.7,86%,highly effective knockdown (dramatically improved relative to Lipofectamine)
NCCCNC(=O)[C@H](Cc1ccccc1)NC(=O)Cc1ccc2ccccc2c1 [2-Nap-Phe-DAP],13.4 ± 1.4,87%,highly effective knockdown (dramatically improved relative to Lipofectamine)
NCCCNC(=O)[C@H](Cc1ccccc1)NC(=O)OCc1ccccc1 [Cbz-Phe-DAP],30.9 ± 3.0,approximately 70%,effective knockdown (slightly improved or similar relative to Lipofectamine)
NCCCNC(=O)[C@H](Cc1ccccc1)NC(=O)C1CCCCC1 [Cyc-Phe-DAP],–,–,ineffective knockdown (less effective than Lipofectamine)
NCCCNC(=O)[C@H](Cc1ccccc1)NC(=O)CC1c2ccccc2-c2ccccc21 [Fm-Phe-DAP],37.9 ± 8.3,~62%,effective knockdown (slightly improved or similar relative to Lipofectamine)
NCCCNC(=O)[C@H](Cc1cccc(F)c1)NC(=O)OCC1c2ccccc2-c2ccccc21 [Fmoc-3F-Phe-DAP],51.8 ± 6.6,~48%,–
NCCCNC(=O)[C@H](Cc1c(F)c(F)c(F)c(F)c1F)NC(=O)OCC1c2ccccc2-c2ccccc21 [Fmoc-F5-Phe-DAP],38.6 ± 4.9,~61%,effective knockdown (slightly improved or similar relative to Lipofectamine)
NCCCNC(=O)[C@H](Cc1ccccc1)NC(=O)OCC1c2ccccc2-c2ccccc21 [Fmoc-Phe-DAP],17.4 ± 2.1,83%,highly effective knockdown (dramatically improved relative to Lipofectamine)
CCCCCCC(=O)N[C@@H](Cc1ccccc1)C(=O)NCCCN [Hex-Phe-DAP],–,–,ineffective knockdown (less effective than Lipofectamine)
NCCCNC(=O)[C@H](Cc1ccccc1)NC(=O)CCCc1ccc2ccc3cccc4ccc1c2c34 [Pyr-Phe-DAP],33.0 ± 2.2,approximately 70%,effective knockdown (slightly improved or similar relative to Lipofectamine)

# From patent publication US20260167972A1, “AMINO ACID DERIVATIVES AS NOVEL DELIVERY AGENTS FOR FUNCTIONAL DELIVERY OF OLIGONUCLEOTIDES” (University of Rochester, priority 2022, published 2026)
